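Each compound was tested at five concentrations against cells in 96-well plates for 48 hours. The concentration for 50% growth inhibition is given as GI50.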 The source made the active and inactive calls. No stated cut-off is given here; in the data, active = GI50 up to about 1.1 µM and inactive = higher.
Columns and labels:
Assay in all cases: inhibition of tumour cell growth, NCI panel, 48 h
786-0 = tested on: 786-0
A549 = tested on: A549
ACHN = tested on: ACHN
CCRF-CEM = tested on: CCRF-CEM
DU-145 = tested on: DU-145
EKVX = tested on: EKVX
HCC 2998 = tested on: HCC 2998
HL-60 = tested on: HL-60
HT-29 = tested on: HT-29
KM12 = tested on: KM12
MDA-N = tested on: MDA-N
MOLT-4 = tested on: MOLT-4
Malme-3M = tested on: Malme-3M
NCI-H226 = tested on: NCI-H226
NCI/ADR-RES = tested on: NCI/ADR-RES
OVCAR-8 = tested on: OVCAR-8
RPMI-8226 = tested on: RPMI-8226
SF-268 = tested on: SF-268
SK-MEL-5 = tested on: SK-MEL-5
U-251 = tested on: U-251

Compound	GI50 (786-0)	GI50 (A549)	GI50 (ACHN)	GI50 (CCRF-CEM)	GI50 (DU-145)	GI50 (EKVX)	GI50 (HCC 2998)	GI50 (HL-60)	GI50 (HT-29)	GI50 (KM12)	GI50 (MDA-N)	GI50 (MOLT-4)	GI50 (Malme-3M)	GI50 (NCI-H226)	GI50 (NCI/ADR-RES)	GI50 (OVCAR-8)	GI50 (RPMI-8226)	GI50 (SF-268)	GI50 (SK-MEL-5)	GI50 (U-251)
COc1ccc(C(=O)/C=C/c2ccc(OCC(=O)N3CCN(c4ccccc4)CC3)cc2)cc1	30.1 µM (inactive)	51.6 µM (inactive)	63.1 µM (inactive)	> 35.6 µM (inactive)	> 100 µM (inactive)	> 70.5 µM (inactive)	> 100 µM (inactive)	> 35.6 µM (inactive)	> 100 µM (inactive)	> 76.4 µM (inactive)	> 100 µM (inactive)	> 26.7 µM (inactive)	> 80.7 µM (inactive)	> 83 µM (inactive)	43.2 µM (inactive)	71 µM (inactive)	> 39.8 µM (inactive)	54 µM (inactive)	59.6 µM (inactive)	28.4 µM (inactive)
NC(=O)C(=CNC(=S)Nc1ccc(Cl)c(Cl)c1)C(N)=O	> 71.1 µM (inactive)	> 100 µM (inactive)	> 94 µM (inactive)	> 80.4 µM (inactive)	> 100 µM (inactive)	65.9 µM (inactive)	26.8 µM (inactive)	> 60.1 µM (inactive)	46.3 µM (inactive)	55.1 µM (inactive)	47.4 µM (inactive)	48.3 µM (inactive)	> 100 µM (inactive)	0.374 µM (active)	85.1 µM (inactive)	> 88.3 µM (inactive)	36.1 µM (inactive)	> 90.8 µM (inactive)	42.3 µM (inactive)	> 56 µM (inactive)
OCC(O)COCn1cc(Cn2ncc3c(NCc4ccccc4)ncnc32)nn1 (centres undefined)	> 100 µM (inactive)	> 100 µM (inactive)	> 100 µM (inactive)	> 100 µM (inactive)	> 100 µM (inactive)	> 100 µM (inactive)	> 100 µM (inactive)	> 100 µM (inactive)	> 100 µM (inactive)	> 100 µM (inactive)	> 100 µM (inactive)	> 100 µM (inactive)	–	> 100 µM (inactive)	> 100 µM (inactive)	> 100 µM (inactive)	> 100 µM (inactive)	17.7 µM (inactive)	> 100 µM (inactive)	> 100 µM (inactive)
O=C(NCCCl)Nc1ccccc1	> 100 µM (inactive)	> 100 µM (inactive)	> 100 µM (inactive)	> 100 µM (inactive)	> 100 µM (inactive)	> 100 µM (inactive)	> 100 µM (inactive)	> 100 µM (inactive)	> 100 µM (inactive)	> 100 µM (inactive)	> 100 µM (inactive)	> 100 µM (inactive)	> 100 µM (inactive)	> 100 µM (inactive)	> 100 µM (inactive)	> 100 µM (inactive)	> 100 µM (inactive)	> 100 µM (inactive)	> 100 µM (inactive)	> 100 µM (inactive)
O=C1Cc2cn[nH]c2-c2ccccc2N1	41.8 µM (inactive)	38 µM (inactive)	28.8 µM (inactive)	20.7 µM (inactive)	40.7 µM (inactive)	34.7 µM (inactive)	26.2 µM (inactive)	29.8 µM (inactive)	34.9 µM (inactive)	33.2 µM (inactive)	35.2 µM (inactive)	20.1 µM (inactive)	> 46.7 µM (inactive)	> 75.9 µM (inactive)	38.4 µM (inactive)	35 µM (inactive)	17.1 µM (inactive)	41.1 µM (inactive)	26.4 µM (inactive)	23.6 µM (inactive)
CCN(CCCl)c1cc(CN(C)C)cc(NC(=O)c2ccc(C(=O)Nc3cccc(N(CCCl)NN)c3)cc2)c1	< 0.01 µM (active)	0.0209 µM (active)	< 0.01 µM (active)	< 0.01 µM (active)	0.0234 µM (active)	–	0.0546 µM (active)	< 0.01 µM (active)	0.0154 µM (active)	0.123 µM (active)	0.0301 µM (active)	< 0.01 µM (active)	0.0224 µM (active)	0.145 µM (active)	1.97 µM (inactive)	0.0246 µM (active)	0.0492 µM (active)	0.0129 µM (active)	0.0461 µM (active)	0.0101 µM (active)
COC(=O)C1=C(\c2ccccc2)c2ccccc2C(=O)N(C2CCCCC2)/C=C\1	34.6 µM (inactive)	16 µM (inactive)	15.6 µM (inactive)	12 µM (inactive)	60 µM (inactive)	52.6 µM (inactive)	10.7 µM (inactive)	21.3 µM (inactive)	21.9 µM (inactive)	13.9 µM (inactive)	29.5 µM (inactive)	> 100 µM (inactive)	25.3 µM (inactive)	18.2 µM (inactive)	26.5 µM (inactive)	38.9 µM (inactive)	–	27.8 µM (inactive)	11.5 µM (inactive)	21 µM (inactive)
O=[N+]([O-])c1ccccc1S(=O)(=O)c1cc(O)cc2c1NCCC2	12.1 µM (inactive)	29.8 µM (inactive)	14.2 µM (inactive)	2.15 µM (inactive)	20.7 µM (inactive)	16.7 µM (inactive)	25.5 µM (inactive)	3.47 µM (inactive)	13.3 µM (inactive)	18.7 µM (inactive)	17.8 µM (inactive)	4.23 µM (inactive)	17.4 µM (inactive)	28.1 µM (inactive)	21.4 µM (inactive)	11.8 µM (inactive)	–	20.7 µM (inactive)	13.9 µM (inactive)	20.2 µM (inactive)
C/C=C1/CN2CCC34c5ccccc5N(C)C23C2CC1C4(C(=O)OC)C(OC(C)=O)O2 (centres undefined)	> 100 µM (inactive)	> 100 µM (inactive)	> 100 µM (inactive)	> 100 µM (inactive)	> 100 µM (inactive)	> 100 µM (inactive)	> 100 µM (inactive)	> 100 µM (inactive)	> 100 µM (inactive)	> 100 µM (inactive)	> 100 µM (inactive)	> 100 µM (inactive)	–	> 100 µM (inactive)	> 100 µM (inactive)	> 100 µM (inactive)	> 100 µM (inactive)	> 100 µM (inactive)	> 100 µM (inactive)	> 100 µM (inactive)
CN(C)CCOc1ccc2[nH]c(C(=O)N3CC(CCl)c4c3cc(NC(=O)OCc3ccc([N+](=O)[O-])cc3)c3ccccc43)cc2c1 (centres undefined)	0.979 µM (active)	1.24 µM (inactive)	0.689 µM (active)	0.162 µM (active)	0.552 µM (active)	1.73 µM (inactive)	8.15 µM (inactive)	0.269 µM (active)	–	1.29 µM (inactive)	1.6 µM (inactive)	0.538 µM (active)	1.47 µM (inactive)	1.67 µM (inactive)	1.34 µM (inactive)	0.483 µM (active)	0.493 µM (active)	1.37 µM (inactive)	1.45 µM (inactive)	1.36 µM (inactive)
Cc1ccc(Nc2c(C#N)[n+]([O-])c3cc(Cl)ccc3[n+]2[O-])cc1	4.8 µM (inactive)	23.8 µM (inactive)	11.2 µM (inactive)	3.23 µM (inactive)	> 100 µM (inactive)	> 81.3 µM (inactive)	21.8 µM (inactive)	3.44 µM (inactive)	11.2 µM (inactive)	12.6 µM (inactive)	> 53.8 µM (inactive)	4.8 µM (inactive)	79.3 µM (inactive)	28.2 µM (inactive)	9.95 µM (inactive)	11.7 µM (inactive)	4.61 µM (inactive)	28.4 µM (inactive)	–	29.3 µM (inactive)
COc1cc(/C=C2\C(=O)N(c3cccc(NC(C)=O)c3)C(c3ccccc3)S2(=O)=O)cc(OC)c1OC (centres undefined)	88.5 µM (inactive)	> 100 µM (inactive)	> 100 µM (inactive)	30.3 µM (inactive)	> 100 µM (inactive)	74.1 µM (inactive)	> 100 µM (inactive)	17.5 µM (inactive)	55.2 µM (inactive)	49.8 µM (inactive)	40.4 µM (inactive)	19.8 µM (inactive)	93.5 µM (inactive)	67.6 µM (inactive)	94.6 µM (inactive)	48.2 µM (inactive)	40.7 µM (inactive)	–	39.1 µM (inactive)	59.8 µM (inactive)
CC1(C)CC(=O)C(=CNC(=S)c2ccccc2)C(=O)C1	> 100 µM (inactive)	> 100 µM (inactive)	> 100 µM (inactive)	27 µM (inactive)	> 100 µM (inactive)	> 100 µM (inactive)	> 100 µM (inactive)	32.3 µM (inactive)	> 100 µM (inactive)	> 100 µM (inactive)	> 100 µM (inactive)	13.6 µM (inactive)	–	> 100 µM (inactive)	> 100 µM (inactive)	> 100 µM (inactive)	–	> 100 µM (inactive)	> 100 µM (inactive)	> 100 µM (inactive)
O=C(c1cccs1)N(C(=O)N1CCN(c2ccccc2)CC1)S(=O)(=O)c1ccccc1	23.2 µM (inactive)	32.8 µM (inactive)	19.3 µM (inactive)	20.8 µM (inactive)	16.5 µM (inactive)	16.7 µM (inactive)	40.1 µM (inactive)	19.4 µM (inactive)	30.5 µM (inactive)	31.4 µM (inactive)	19.3 µM (inactive)	20.2 µM (inactive)	19.8 µM (inactive)	19.8 µM (inactive)	24 µM (inactive)	18.6 µM (inactive)	–	27.3 µM (inactive)	17 µM (inactive)	17.5 µM (inactive)

From ChEMBL document CHEMBL1201862, “PubChem BioAssay data set” (2004)
